According to patent publication US20230272357A1, “METHODS OF GENOME EDITING INCLUDING CONTROLLED OPENING OF CHROMATIN” (Wisconsin Alumni Research Foundation, priority 2021, published 2023):

How the values were obtained:
iPSCs = assay: Bulk RNA sequencing of TSA-treated iPSCs; type: cell-based, human; conditions: edited clones from 6.25 ng/mL TSA, data not shown
Description: RNA extraction and Bulk RNA sequencing: RNA was extracted from iPSCs in one well of 6-well plate using the GenElute™ Total RNA Purification Kit (Millipore Sigma) according to the manufacturer's instructions. RNA was then quantified using Nanodrop™ 2000 (ThermoFisher Scientific) and the integrity of samples were confirmed with the following three criteria for inclusion: 1) a concentration>50 ng/ml, 2) an A260/A280 rating of 1.8 and 2.1, and 3) an A260/A230 ratio>1.8. Total RNA was submitted to the University of Wisconsin-Madison Biotechnology Center and was verified for purity and integrity via the NanoDrop™ One Spectrophotometer and Agilent 2100 BioAnalyzer, respectively. Samples that met the Illumina® sample input guidelines were prepared according to the TruSeq®Stranded Total Sample Preparation Guide (1000000040499 v00) using the Illumina® TruSeq ® Stranded Total Sample Preparation kits (Illumina Inc., San Diego, Calif., USA) and sequenced on an Illumina® NovaSeg™ 6000 system at a run length 2×150 bp and target read depth of 30 million reads/sample at the University of Wisconsin—Madison Biotechnology Center. […] Normalized counts were then extracted and genes with read counts <10 were filtered out. Fold change was then calculated as the ratio of the reads of the TSA-treated iPSCs to the untreated iPSCs.

[1] = system: HIST1H2BJ-GFP reporter iPSC nuclei; assay: Live in situ nuclear imaging of chromatin condensation (CellProfiler); type: cell-based, human; conditions: TSA 0, 3.13, 6.25, 12.5 ng/mL, FIG. 1C,D
Description: Antibodies and Staining: All cells were fixed for 15 minutes with 4% paraformaldehyde in PBS (Sigma-Aldrich, St. Louis, Mo.) and permeabilized with 0.5% Triton™-X (Sigma-Aldrich) for >4 hours at room temperature before staining. Hoechst (H1399; Thermo Fisher Scientific, Waltham, Mass.) was used at 5 μg/mL with 15 min incubation at room temperature to stain nuclei. Primary antibodies were applied overnight at 4° C. in a blocking buffer of 5% donkey serum (Sigma-Aldrich) at the following concentrations: H3K9Me3 (ab8898; Abcam) 1:500; H3K9Ac (39918; Active Motif) 1:100; H3K27Me3 (C36B11; Cell Signaling Technology) 1:200. […]
After streamlining the gene editing strategy, the effect of TSA treatment on the gene editing efficiency of iPSCs was examined The iPSCs were pre-treated with TSA (0, 3.13, 6.25, and 12.5 ng/mL) and their nuclei imaged. […] The images were then used as inputs for a CellProfiler software pipeline to output the chromatin condensation % of the nuclei (data not shown), defined as the ratio of total heterochromatin intensity to the total nuclear intensity. […]

With `CC(/C=C/C(=O)NO)=C\[C@@H](C)C(=O)c1ccc(N(C)C)cc1` [TSA, Trichostatin A] the “Gene expression of pluripotency marker genes (OCT4, NANOG, SOX2, TRA-1-60)” value (iPSCs) was “did not decrease” and the “Chromatin condensation % (heterochromatin intensity to total nuclear intensity)” value [1] was “decrease”.
